The record followed here is patent US20100075917A1, “THIONUCLEOSIDES AND PHARMACEUTICAL APPLICATIONS” (priority 2006, published 2010).

In series [1] the test system is HIV-1. The series is described as follows: Anti-HIV-1 effect in CEM cells. The class given is cell-based. The settings on record: Human immunodeficiency virus 1, CCRF-CEM, read-out: EC50 HIV-1. Here is the method: (§1) The evaluation test is described in Roy, B.; Chambert, S.; Lepoivre M.; Aubertin, A.-M.; Balzarini, J.; Décout, J.-L., Deoxyribonucleoside 2′- or 3′-mixed disulfides: prodrugs to target ribonucleotide reductase and/or to inhibit HIV reverse transcription. J. Med. Chem. 2003, 46, 2565-2568.
(§2) The toxicity and the antiviral activities were measured at different concentrations, and their evolution as a function of the concentration makes it possible to evaluate: • the concentration at which 50% of the cells are dead in the absence of virus (CC 50) for each of the test compounds, from the change in absorbance at 540 nm of formazan as a function of the concentration of test compound, • the concentration of compound that leads to a 50% reduction in the activity of viral reverse transcriptase (EC 50). This concentration is determined from the curve representing the change in the percentage of “remaining reverse transcriptase” activity (defined as being the ratio of the activity of the reverse transcriptase in the presence of the test compound to that of the untreated cells) as a function of the concentration of test compound.
(§3) EC50: concentration required to afford 50% protection to the CEM cells against the cytopathogenicity of HIV;

The test system of series [2] is FM3A/0 murine mammary carcinoma cells. Briefly: Cytotoxic effect on FM3A/0 cells. The class given is cell-based. Further details: unit not given beside the values. Conditions: Tables 5 and 7, FM3A/0 cells.
Series [3] concerns Moloney sarcoma virus. Briefly: Inhibition of transformation of mouse embryo C3H/3T3 cells induced by Moloney sarcoma virus. In kind it is cell-based. Further details: MIC (minimum inhibitory concentration): unit not given here. Conditions: for EC50: C3H/3T3, read-out: EC50 (effective concentration 50%); for MIC (minimum inhibitory concentration): C3H/3T3 cells, a second bound is given in brackets for some compounds. The text has this: 2.2. Inhibitory Effect on the Transformation of Mouse Embryo C3H/3T3 Cells Induced by Moloney Sarcoma Virus (Model of Infection with HIV)

The subject of series [4] is human Molt4/C8 cells. Briefly: Cytotoxic effect on Molt4/C8 cells. In kind it is cell-based. Conditions: Tables 5 and 7, Molt4/C8 cells.
The test system of series [5] is human CEM cells. The series is described as follows: Cytotoxicity (MTT) on CEM cells. Conditions: Homo sapiens, CCRF-CEM, Tables 4 and 6, CEM cells; some values 'then plateau'. The class given is cell-based. Here is the method:
The cytotoxic effect of a compound is studied on human CEM cells and MCF-7 mammary carcinoma cells that are or are not resistant to gemcitabine, which is an anticancer nucleoside used in chemotherapy.
The cytotoxicity (CC50) was estimated by measuring the reduction of 3-(4,5-dimethylthiazol-2-yl)-2,5-diphenyltetrazolium bromide (MTT), which is converted into insoluble violet formazan. To do this, 100 000 cells (human CEM-SS or MCF-7 lines) are inoculated per well in 100 μl of culture medium, in 96-well microtitration plates. After 24 hours, the test products are added in 100 μl and incubation is continued for 48 to 72 hours. MIT is then added in a proportion of 20 μl of a solution at 5 mg/ml in PBS. Three hours later, 100 μl of a DMF/acetic acid/HCl/SDS (sodium dodecyl sulfate) solution are added. After 3 hours at 37° C., the absorbance of the formazan is measured at 590 nm and compared with that of the untreated control.

Series [6] concerns human CEM T4 lymphocytes. Briefly: Cytotoxic effect on CEM T4 lymphocytes. The class given is cell-based. Set-up: unit not given beside the values. Conditions: Tables 5 and 7, CEM cells.
Series [7] has as its system HIV-2. Briefly: Anti-HIV-2 effect in CEM/TK− cells. Conditions: Human immunodeficiency virus 2, CEM-TK(-); Third Series; CEM cells having no thymidine kinase activity. In kind it is cell-based. Here is the method: as §1, §2, §3
• Effect in CEM not expressing thymidine kinase activity (CEM/TK^−, cells having no thymidine kinase activity).

Series [8] has as its system HeLa cells. The series is described as follows: Cytotoxic effect on HeLa cells. The class given is cell-based. The settings on record: Tables 5 and 7, HeLa cells. Set-up: unit not given beside the values.
The test system of series [9] is HIV-2. The series is described as follows: Anti-HIV-2 effect in CEM cells. The class given is cell-based. Conditions: Human immunodeficiency virus 2, CCRF-CEM, CEM cells, read-out: EC50 HIV-2. Here is the method:
as §1, §2, §3

A short description of series [10]: Cytotoxic concentration in CEM cells (antiviral tests). In kind it is cell-based, human. Conditions: human; First and Second Series, second table; viability of CEM cells. On the procedure: as §2
(§4) CC50: cytotoxic concentration or concentration required to reduce the viability of the CEM cells by 50%.

Series [11] has as its system L1210/0 murine leukemia cells. The series is described as follows: Cytotoxic effect on L1210/0 cells. The class given is cell-based. Conditions: Tables 5 and 7, L1210/0 cells.
Series [12] relates to CEM cells. The series is described as follows: Cytotoxic concentration in CEM cells (antiviral tests). In kind it is cell-based, human. Conditions: First and Second Series, second table; viability of CEM cells. On the procedure: as §2, §4
[13] abbreviates: First and Second Series, second table.

Like-named read-outs stand apart in the source and are kept apart here.

Regarding `Cc1cn([C@H]2C[C@H](SSCCO)[C@@H](CO)O2)c(=O)[nH]c1=O` [Compound 21, 3′-deoxythymidin-3′-yl 2-hydroxyethyl disulfide], the EC50 is 13.5 ± 3 µM in [1] (setting [13]); 17.5 ± 3.5 µM in [1] (Third Series); 5.9 ± 0.5 µM in [3]; > 200 µM in series [5]; > 50 µM in series [7]; 14 ± 7 µM in [9] (setting [13]). In addition, the EC50 in series [9] (Third Series) was 15 ± 7 µM. Moreover, in [2], the “cytotoxic effect, FM3A/0” value is recorded as >500. Further, the “MIC (minimum inhibitory concentration)” value in series [3] is on record as >100. In series [4], the “cytotoxic effect, Molt4/C8” value was found to be 128 ± 33. The “cytotoxic effect, CEM” value in series [6] amounted to 347 ± 71. In addition, the “cytotoxic effect, HeLa” value in [8] is given as “≧100”. In series [10], the 50% cytotoxic concentration (CC50) is > 250 µM. For the same compound, in series [11], the “cytotoxic effect, L1210/0” value is given as 26 ± 3.

For the compound `Cc1cn([C@H]2C[C@H](SSC(Cl)(Cl)Cl)[C@@H](CO)O2)c(=O)[nH]c1=O` [Compound 22, 3′-deoxythymidin-3′-yl trichloromethyl disulfide], the EC50 in series [1] (setting [13]) was found to be 25 µM; in series [1] (Third Series) it was 20 µM; in series [5], 21 µM; in series [7], 22.5 ± 3.5 µM; in series [9] (setting [13]), 17.5 ± 3.5 µM; in series [9] (Third Series), 27.5 ± 3.5 µM. Also, the “cytotoxic effect, FM3A/0” value in series [2] came to 244 ± 49. The “cytotoxic effect, Molt4/C8” value in [4] was found to be 55 ± 19. The “cytotoxic effect, CEM” value in series [6] is recorded as 121 ± 18. In series [8], the “cytotoxic effect, HeLa” value is on record as 39 ± 10. The 50% cytotoxic concentration (CC50) in [12] was found to be 103 ± 4 µM. In series [11], the “cytotoxic effect, L1210/0” value is reported as 45 ± 1.

In the case of `CCCCSS[C@H]1C[C@H](n2cc(C)c(=O)[nH]c2=O)O[C@@H]1CO` [Compound 24, 3′-deoxythymidin-3′-yl butyl disulfide], the EC50 in series [1] (setting [13]) was 8 ± 3 µM; in series [1] (Third Series), > 10 µM; in series [3], 1 ± 0.5 µM; in series [7] it was > 10 µM; in [9] (setting [13]) it was > 10 µM; in series [9] (Third Series), > 10 µM. Besides, the “cytotoxic effect, FM3A/0” value in [2] is 286 ± 24. Moreover, the “MIC (minimum inhibitory concentration)” value in [3] is recorded as 100. Moreover, the “cytotoxic effect, Molt4/C8” value in [4] is reported as 28 ± 7. Moreover, in series [6], the “cytotoxic effect, CEM” value is given as 44 ± 1. In addition, in series [8], the “cytotoxic effect, HeLa” value stood at 23 ± 2. The compound also displayed a CC50 in series [12] of 23.3 ± 0.6 µM. For the same compound, the “cytotoxic effect, L1210/0” value in series [11] was 32 ± 0.

As a reminder, the CC50 is the concentration at which the toxic effect on the cells reaches its halfway point.
